Source: patent US9758459B2, “Allosteric modulators of factor XIa as anticoagulant agents” (VIRGINIA COMMONWEALTH UNIVERSITY, priority 2012, dated 2017)
Several values for one entry are separate records, joined by “and”; a condition that tells them apart may be missing. Identical values can stand only once. Like-named read-outs stand apart in the source and are kept apart here.

Tests used:
factor Xa = biological target: T1, factor Xa (Homo sapiens, UniProt P00742); assay: Factor Xa chromogenic substrate hydrolysis assay; type: biochemical
T1 construct: purchased Haematologic Technologies (Essex Junction, Vt.); host or cells: human plasma
T1 sequence (P00742 235-488 limits assumed): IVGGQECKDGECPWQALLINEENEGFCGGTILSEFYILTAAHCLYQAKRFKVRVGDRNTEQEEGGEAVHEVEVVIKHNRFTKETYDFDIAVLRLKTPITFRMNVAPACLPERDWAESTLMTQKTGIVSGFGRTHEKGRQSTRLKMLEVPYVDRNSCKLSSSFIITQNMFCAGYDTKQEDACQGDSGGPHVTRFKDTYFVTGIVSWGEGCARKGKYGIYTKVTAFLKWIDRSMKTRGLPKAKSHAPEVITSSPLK
T1 sequence (P00742 41-179 partner limits assumed): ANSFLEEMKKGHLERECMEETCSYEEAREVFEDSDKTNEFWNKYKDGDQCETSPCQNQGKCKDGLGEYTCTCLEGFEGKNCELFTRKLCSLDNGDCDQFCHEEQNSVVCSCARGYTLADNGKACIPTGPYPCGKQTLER
Protocol: (§1) Plasma FIX (500 nM) was incubated with human FXIa (3 nM) in 50 mM Hepes buffer, pH 7.4, containing 125 mM NaCl, 5 mM CaCl2, and 0.1 mg/mL bovine serum albumin at 24° C. […] The primary antibody was goat anti-human FIX polyclonal IgG (Enzyme Research Laboratories, South Bend, Tenn.), and the secondary antibody was horseradish peroxidase-conjugated anti-goat IgG. Detection was by chemiluminescence. […] The inhibition profile was determined over a range of inhibitor concentrations to determine the IC50 of the enzyme-inhibitor complex. The KM of the substrate for its enzyme was used to identify the concentration of the substrate to be used for inhibition studies. […] Active site concentrations for preparations of FXIa were determined by titrations with human antithrombin in an S-2366 cleavage assay. The reaction was monitored using a SpectraMax 340 microtiter plate reader (Molecular Devices Corp., Sunnyvale, Calif.) with a reaction volume of 100 μL and path length of 3 mm. Each assay was performed in triplicate. The concentration of S-2366 was measured using an absorption coefficient of 8,266 M-1cm-1 at λ342 nm, while the free p-nitroaniline concentration was calculated using an absorption coefficient of 9,933 M cm^−1 at λ405 nm. The data was fitted using the standard Michaelis-Menten equation to determine the KM and VMAX. Results
Inhibition of Proteases of the Coagulation and Digestive Systems by 16S. The inhibition potential of 500 μM SAM (16S, 15S, 13S) against coagulation enzymes including thrombin and factor Xa and digestive enzymes including trypsin and chymotrypsin was evaluated using chromogenic substrate hydrolysis assays reported in the literature.^2,3,6 These assays were performed using substrates appropriate for the enzyme being studied under conditions closest to the physiological condition (37° C. and pH 7.4), except for thrombin, which was performed at 25° C. and pH 7.4. The concentrations of enzymes and substrates in microplate wells, respectively, were: 6 nM and 50 μM for thrombin; 1.09 nM and 125 μM for factor Xa, 2.5 ng/ml and 80 μM for bovine trypsin; and 500 ng/ml and 240 μM for bovine chymotrypsin. The ratio of the proteolytic activity of an enzyme in the presence of the sulfated QAO to that in its absence was used to calculate percent inhibition (%).

factor IXa = biological target: T2, factor IXa (Homo sapiens, UniProt P00740); assay: Factor IXa chromogenic substrate hydrolysis assay; type: biochemical
T2 construct: purchased Haematologic Technologies (Essex Junction, Vt.); host or cells: human plasma
T2 sequence (P00740 227-461 limits assumed): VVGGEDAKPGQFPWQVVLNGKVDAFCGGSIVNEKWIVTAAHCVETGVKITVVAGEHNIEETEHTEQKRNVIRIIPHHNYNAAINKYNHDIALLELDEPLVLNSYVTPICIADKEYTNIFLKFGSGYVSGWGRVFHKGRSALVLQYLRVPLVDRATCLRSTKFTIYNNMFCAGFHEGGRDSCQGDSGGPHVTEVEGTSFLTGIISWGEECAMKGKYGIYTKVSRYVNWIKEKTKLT
T2 sequence (P00740 47-191 partner limits assumed): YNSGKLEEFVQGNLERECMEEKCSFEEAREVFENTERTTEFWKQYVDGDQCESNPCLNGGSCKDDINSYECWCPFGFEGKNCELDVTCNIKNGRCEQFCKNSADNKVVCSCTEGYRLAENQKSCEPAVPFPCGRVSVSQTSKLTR

FXIa wild type (FXIa-WT) = biological target: T3, FXIa wild type (FXIa-WT) (Homo sapiens, UniProt P03951); assay: Michaelis-Menten kinetics of S-2366 hydrolysis by full-length factor XIa; type: biochemical
T3 construct: made in house; host or cells: HEK-293
T3 sequence (P03951 19-387 limits assumed): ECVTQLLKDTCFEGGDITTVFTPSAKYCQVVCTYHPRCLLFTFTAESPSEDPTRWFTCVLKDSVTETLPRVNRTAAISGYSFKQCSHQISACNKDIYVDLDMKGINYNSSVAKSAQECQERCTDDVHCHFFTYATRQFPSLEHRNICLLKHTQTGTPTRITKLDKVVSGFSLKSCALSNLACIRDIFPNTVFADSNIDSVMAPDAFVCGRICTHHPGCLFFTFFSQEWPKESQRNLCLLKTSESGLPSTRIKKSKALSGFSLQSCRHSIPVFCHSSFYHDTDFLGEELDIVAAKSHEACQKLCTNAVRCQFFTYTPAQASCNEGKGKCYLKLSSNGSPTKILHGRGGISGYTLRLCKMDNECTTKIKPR
T3 sequence (P03951 388-625 limits assumed): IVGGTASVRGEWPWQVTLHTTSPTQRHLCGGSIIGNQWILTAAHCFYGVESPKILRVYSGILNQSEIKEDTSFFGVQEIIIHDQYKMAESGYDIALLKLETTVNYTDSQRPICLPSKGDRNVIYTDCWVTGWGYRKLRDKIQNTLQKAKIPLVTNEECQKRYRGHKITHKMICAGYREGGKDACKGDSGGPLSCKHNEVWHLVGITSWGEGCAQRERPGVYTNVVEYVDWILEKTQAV
Protocol: as §1

human FXIa = biological target: T4, human FXIa (Homo sapiens, UniProt P03951); assay: Inhibition of FXIa by SPGG in the presence of UFH (competition); type: biochemical
T4 construct: purchased Haematologic Technologies (Essex Junction, Vt.); host or cells: human plasma
T4 sequence (P03951 19-387 limits assumed): as the sequence (P03951 19-387 limits assumed) above
T4 sequence (P03951 388-625 limits assumed): as the sequence (P03951 388-625 limits assumed) above
Protocol: Solvent A consisted of 25 mM n-hexylamine in water containing 0.1% (v/v) formic acid, while solvent B consisted of 25 mM n-hexylamine in acetonitrile-water mixture (3:1 v/v) containing 0.1% (v/v) formic acid. […] The sample was first monitored for absorbance in the range of 190-400 nm and then directly introduced into the mass spectrometer. ESI-MS detection was performed in positive ion mode for which the capillary voltage was 4 kV, cone voltage was 20 V, desolvation temperature was 350° C. and nitrogen gas flow was maintained at 650 L/hr. Mass scans were collected in the range of 1000-2048 amu within 0.25 s and several of these added to enhanced signal-to-noise ratio. Direct Inhibition of Factor XIa. […] After 10 min incubation, 5 μL factor XIa substrate (345 μM) was rapidly added and the residual FXIa activity was measured from the initial rate of increase in absorbance at 405 nm. […] Relative residual FXIa activity at each concentration of the inhibitor was calculated from the ratio of FXIa activity in the presence and absence of the inhibitor. Logistic equation 1 was used to fit the dose-dependence of residual protease activity to obtain the potency (IC50) and efficacy (ΔY) of inhibition.
A more quantitative test of competitive binding is the Dixon-Webb relationship, which predicts the effect of an ideal competitor on a measured parameter, e.g. KD or IC50.

human plasma = assay: Activated partial thromboplastin time (APTT) plasma clotting assay; type: biochemical
Protocol: Plasma clotting assays, prothrombin and activated partial thromboplastin time (PT and APTT, respectively), are routinely used to assess the anticoagulation potential of new enzyme inhibitors in an in vitro setting. Whereas PT measures the effect of an inhibitor on the extrinsic pathway of coagulation, APTT measures the effect on the intrinsic pathway.
Prothrombin Time (PT) and Activated Partial Thromboplastin Time (APTT) were assessed as described in Example 1.

human whole blood = assay: Thromboelastography of clot formation in whole blood; parameters: G: unit not given here
Text: To assess the anticoagulation properties of SPGG in human whole blood, thromboelastography was employed. This technique is an ex vivo protocol often utilized to evaluate the anticoagulant activity of low molecular weight heparins (LMWHs) in whole blood.^13-16Thromboelastography monitors the thrombodynamic properties of blood as it is induced to clot under a low shear environment resembling sluggish venous flow. These thrombodynamic properties are expected to dramatically change in presence of anticoagulant in blood. The blood clot formation is recorded as a force transduced on a pin at the center of a blood-containing cup. The kinetics of clot formation and growth as well as the strength and stability of the formed clot are measured through parameters such as maximum amplitude (MA) of clot formation; shear elastic modulus strength (G) of clot; the reaction time (R) for the start of clotting; and the angle α, which is a measure of fibrin build-up and cross-linking (FIG. 8).

- HS (factor Xa): 0.8 ± 0.2
- IC50 (factor Xa): 153 µM
- ΔY (factor Xa): 101.9 ± 3.5
- selectivity over factor Xa (factor Xa; FXIa vs factor Xa): 221 fold
- HS (factor IXa): 2.2 ± 0.6
- IC50 (factor IXa): 655 µM
- ΔY (factor IXa): 100.6 ± 5.8
- selectivity over factor IXa (factor IXa; FXIa vs factor IXa): 950 fold
- VMAX (FXIa wild type (FXIa-WT); [SPGG] 0.005 μg/mL): 93.7 ± 3.2 mAU/min
- VMAX (FXIa wild type (FXIa-WT); [SPGG] 0.5 μg/mL): 74.6 ± 2.6 mAU/min
- VMAX (FXIa wild type (FXIa-WT); [SPGG] 5.0 μg/mL): 32.3 ± 2.1 mAU/min
- VMAX (FXIa wild type (FXIa-WT); [SPGG] 50.0 μg/mL): 17.2 mAU/min and 17.2 ± 1.2 mAU/min
- VMAX (FXIa wild type (FXIa-WT); [SPGG] […]): 56.9 ± 1.5 mAU/min
- HS (human FXIa; UFH 0 μM): 1.3 ± 0.1
- ΔY (human FXIa; UFH 0 μM): 97.1 ± 3.2
- IC50 (human FXIa; UFH 0 μM, Dixon-Webb equation, read-out: IC50, predicted (converted)): 0.689 µM
- HS (human FXIa; UFH 3.33 μM): 1.7 ± 0.2
- ΔY (human FXIa; UFH 3.33 μM): 92.7 ± 6.4
- IC50 (human FXIa; UFH 3.33 μM, Dixon-Webb equation, read-out: IC50, predicted (converted)): 2.24 µM
- IC50 (human FXIa; UFH 3.33 μM, pH 7.4, 37° C., read-out: IC50 (converted)): 4.02 µM
- HS (human FXIa; UFH 33.3 μM): 4.0 ± 0.9
- ΔY (human FXIa; UFH 33.3 μM): 58.2 ± 6.6
- IC50 (human FXIa; UFH 33.3 μM, pH 7.4, 37° C., read-out: IC50 (converted)): 18 µM and 17.8 µM
- IC50 (human FXIa; UFH […], Dixon-Webb equation, read-out: IC50, predicted (converted)): 0.747 µM
Structure (SMILES): O=C(OC[C@H]1O[C@@H](OC(=O)c2cc(OS(=O)(=O)O)c(O)c(OS(=O)(=O)O)c2)[C@H](OC(=O)c2cc(OS(=O)(=O)O)c(O)c(OS(=O)(=O)O)c2)[C@@H](OC(=O)c2cc(OS(=O)(=O)O)c(O)c(OS(=O)(=O)O)c2)[C@@H]1OC(=O)c1cc(OS(=O)(=O)O)c(O)c(OS(=O)(=O)O)c1)c1cc(OS(=O)(=O)O)c(O)c(OS(=O)(=O)O)c1 [SPGG, Sulfated Pentagalloylglucoside]
- fold less effective than enoxaparin (human plasma; at molar levels): 36 fold
- APTT doubling potency relative to enoxaparin (fold less) (human plasma; by weight (μg/mL)): 18 fold
- concentration for 2-fold increase in APTT (human plasma; human plasma): 96 µg/mL
- reduction of G (human whole blood; SPGG 0-280 μg/mL): ~8 fold
- reduction of MA (human whole blood; SPGG 0-280 μg/mL): ~4 fold
- G (human whole blood; SPGG 20 μg/mL): 8.2 × 10^3
- MA (human whole blood; SPGG 20 μg/mL): 62 mm
- R (human whole blood; SPGG 20 μg/mL): 6.6 min
- α (human whole blood; SPGG 20 μg/mL): 51.4 degs
- G (human whole blood; SPGG 135 μg/mL): 5.0 × 10^3
- MA (human whole blood; SPGG 135 μg/mL): 49.8 mm
- R (human whole blood; SPGG 135 μg/mL): 22.8 min
- α (human whole blood; SPGG 135 μg/mL): 30.6 degs
- G (human whole blood; SPGG 190 μg/mL): 3.8 × 10^3
- MA (human whole blood; SPGG 190 μg/mL): 43.5 mm
- R (human whole blood; SPGG 190 μg/mL): 37.8 min
- α (human whole blood; SPGG 190 μg/mL): 9.4 degs
- G (human whole blood; SPGG 280 μg/mL): 0.9 × 10^3
- MA (human whole blood; SPGG 280 μg/mL): 15.1 mm
- R (human whole blood; SPGG 280 μg/mL): 87.1 min
- α (human whole blood; SPGG increased from 0 to 280 μg/mL): less than 9.4 °
